Assay results reported in ChEMBL document CHEMBL1201862, “PubChem BioAssay data set” (2004).
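Where inhibition never reached the appropriate level, the endpoint shown equals the highest concentration tested. Otherwise, values were interpolated linearly from a five-concentration, 48-hour dose response in 96-well plates. GI50 is the concentration that inhibits growth by half.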 The source made the active and inactive calls. Rule as the data show it: active = GI50 up to about 1.1 µM and inactive = higher.

What was measured:
Experiment in all cases: NCI tumour cell line growth inhibition, 48 h
[1] = system: A498
[2] = system: A549
[3] = system: HCC 2998
[4] = system: HCT-15
[5] = system: HOP-92
[6] = system: Hs-578T
[7] = system: IGROV-1
[8] = system: KM12
[9] = system: MCF7
[10] = system: MDA-MB-435
[11] = system: MDA-N
[12] = system: MOLT-4
[13] = system: Malme-3M
[14] = system: NCI-H226
[15] = system: NCI-H23
[16] = system: OVCAR-8
[17] = system: RXF 393
[18] = system: SK-MEL-28
[19] = system: SK-MEL-5
[20] = system: SNB-75

Row | SMILES | GI50 [1] | GI50 [2] | GI50 [3] | GI50 [4] | GI50 [5] | GI50 [6] | GI50 [7] | GI50 [8] | GI50 [9] | GI50 [10] | GI50 [11] | GI50 [12] | GI50 [13] | GI50 [14] | GI50 [15] | GI50 [16] | GI50 [17] | GI50 [18] | GI50 [19] | GI50 [20]
1 | CN[C@@H](Cc1cccc2ccccc12)C(=O)N[C@@H](CC(C)C)B(O)O | < 0.01 µM (active) | < 0.01 µM (active) | < 0.01 µM (active) | < 0.01 µM | < 0.01 µM (active) | 0.0143 µM (active) | < 0.01 µM (active) | < 0.01 µM (active) | < 0.01 µM (active) | < 0.01 µM (active) | < 0.01 µM (active) | < 0.01 µM (active) | < 0.01 µM (active) | 0.00211 µM (active) | < 0.01 µM (active) | < 0.014 µM (active) | < 0.01 µM (active) | < 0.01 µM (active) | < 0.01 µM (active) | < 0.01 µM (active)
2 | COC(=O)c1ccc(C)cc1CC1Cc2ccc(C)cc2C1=O (stereo not given) | 1.53 µM (inactive) | 11 µM (inactive) | 10.1 µM (inactive) | 3.24 µM | 23 µM (inactive) | 15 µM (inactive) | 7.87 µM (inactive) | 4.27 µM (inactive) | 4.39 µM (inactive) | 1.63 µM (inactive) | 1.75 µM (inactive) | 5.68 µM (inactive) | 5.24 µM (inactive) | 6.04 µM (inactive) | 15.7 µM (inactive) | 12.2 µM (inactive) | 10.1 µM (inactive) | 8.43 µM (inactive) | 7.29 µM (inactive) | 5.69 µM (inactive)
3 | CCCCCn1c(=O)c2c(=O)[nH][nH]c2c2ccccc21 | > 100 µM (inactive) | > 100 µM (inactive) | > 100 µM (inactive) | > 100 µM | > 100 µM (inactive) | > 100 µM (inactive) | > 100 µM (inactive) | > 100 µM (inactive) | > 100 µM (inactive) | > 100 µM (inactive) | > 100 µM (inactive) | > 100 µM (inactive) | > 100 µM (inactive) | > 100 µM (inactive) | > 100 µM (inactive) | > 100 µM (inactive) | > 100 µM (inactive) | > 100 µM (inactive) | > 100 µM (inactive) | > 100 µM (inactive)
4 | COc1ccc2c(c1)CCc1c-2n(CCN2CCOCC2)c2ccc(OC)cc12 | > 100 µM (inactive) | 60.3 µM (inactive) | 3.92 µM (inactive) | 41 µM | > 100 µM (inactive) | 61.7 µM (inactive) | 80.2 µM (inactive) | 18.8 µM (inactive) | 85.5 µM (inactive) | > 100 µM (inactive) | 94.2 µM (inactive) | 12.5 µM (inactive) | 75.2 µM (inactive) | 25.5 µM (inactive) | > 100 µM (inactive) | > 100 µM (inactive) | > 100 µM (inactive) | > 100 µM (inactive) | 54.7 µM (inactive) | 0.0515 µM (active)
5 | Cc1ccc(/N=C2N=C(Cl)/C(=C\c3ccccc3)N\2)cc1 | > 100 µM (inactive) | > 100 µM (inactive) | 12.2 µM (inactive) | 2.88 µM | > 100 µM (inactive) | > 100 µM (inactive) | > 100 µM (inactive) | > 22.6 µM (inactive) | > 100 µM (inactive) | 30.6 µM (inactive) | 51.9 µM (inactive) | 2.33 µM (inactive) | > 100 µM (inactive) | > 100 µM (inactive) | > 100 µM (inactive) | > 25.8 µM (inactive) | > 100 µM (inactive) | > 100 µM (inactive) | 48.8 µM (inactive) | > 100 µM (inactive)
6 | COc1ccc2[nH]c3cc4c(=O)c5cc(OC)ccc5[nH]c4cc3c(=O)c2c1 | > 100 µM (inactive) | > 100 µM (inactive) | > 100 µM (inactive) | > 100 µM | > 100 µM (inactive) | > 100 µM (inactive) | > 100 µM (inactive) | > 100 µM (inactive) | > 100 µM (inactive) | > 100 µM (inactive) | > 100 µM (inactive) | > 100 µM (inactive) | > 100 µM (inactive) | > 100 µM (inactive) | > 100 µM (inactive) | > 100 µM (inactive) | > 100 µM (inactive) | > 100 µM (inactive) | > 100 µM (inactive) | 26.9 µM (inactive)
